Reference: US20250032423A1, “HERBAL BIOACTIVES BASED IMMUNOSTIMULANT FORMULATION FOR POULTRY BIRDS & CATTLE AND PREPARATION THEREOF” (Edhas Technologies Inc., priority 2023, published 2025)
Each block holds one compound with its values, some of them ahead of it.

Key:
[1] = DPPH radical scavenging assay
Pseudomonas aeruginosa = assay: MIC and fractional inhibitory concentration index (FICI) against Pseudomonas aeruginosa
[2] = ABTS radical scavenging assay

IC50 (DPPH) [1]: 10 ppm
Structure (SMILES): O=C1O[C@H]([C@@H](O)CO)C(O)=C1O [Ascorbic acid]
% Inhibition (DPPH scavenging) ([1]; 10 ppm): 58.80% | % Inhibition (DPPH scavenging) ([1]; 25 ppm): 64.65% | % Inhibition (DPPH scavenging) ([1]; 50 ppm): 66.42% | % Inhibition (DPPH scavenging) ([1]; 100 ppm): 71.18% | % Inhibition (DPPH scavenging) ([1]; 250 ppm): 87.60% | % Inhibition (DPPH scavenging) ([1]; 500 ppm): 90.65%

MIC (Pseudomonas aeruginosa): 8100 µg/mL
Structure (SMILES): COc1cc(/C=C/C(=O)CC(=O)/C=C/c2ccc(O)c(OC)c2)ccc1O [Curcumin]

MIC (Pseudomonas aeruginosa): 10100 µg/mL
Structure (SMILES): C=CCc1ccc(O)c(OC)c1 [Eugenol]

MIC (Pseudomonas aeruginosa): 9200 µg/mL
Structure (SMILES): Cc1ccc(C(C)C)c(O)c1 [Thymol]

IC50 (ABTS) [2]: 10 ppm
Structure (SMILES): Cc1c(C)c2c(c(C)c1O)CCC(C)(C(=O)O)O2 (stereo not drawn) [Trolox]
% Inhibition (ABTS scavenging) ([2]; 10 ppm): 54.48% | % Inhibition (ABTS scavenging) ([2]; 25 ppm): 63.01% | % Inhibition (ABTS scavenging) ([2]; 50 ppm): 73.1% | % Inhibition (ABTS scavenging) ([2]; 100 ppm): 86.71% | % Inhibition (ABTS scavenging) ([2]; 250 ppm): 89.12% | % Inhibition (ABTS scavenging) ([2]; 500 ppm): 94.08% | % Inhibition (ABTS scavenging) ([2]; 1000 ppm): 99.24%
